Reference: publication PMC8147293, “Library of Selenocyanate and Diselenide Derivatives as In Vivo Antichagasic Compounds Targeting Trypanosoma cruzi Mitochondrion” (Pharmaceuticals, 2021)
Read-outs that look alike come from different tables or passages of the source.

Experiments:
Mammalian Vero cells = assay: Cytotoxicity test on Vero cells (resazurin); format: cell-based; settings: Chlorocebus sabaeus, Table 1, Vero cells, 48 h + 24 h resazurin, read-out: Toxicity IC50 Vero Cell; for CC50: 72 h
Description: Mammalian Vero cells (EACC No. 84113001), cultured as previously reported, were used to determine the cytotoxicity of the tested compounds [56]. In short, 1.25 × 10^4 Vero cells·mL^−1 were treated by adding the compounds at a concentration range from 400 to 1 µM in 96-well microplates (200 µL·well^−1) at 37 °C for 48 h. Subsequently, resazurin sodium salt (Sigma-Aldrich) was added to be incubated for further 24 h. Finally, cell viability was determined following the same procedure as described to assess the trypanocidal activity in the epimastigotes. Each compound concentration was tested in triplicate in three independent experiments.

[1] = test system: Trypanosoma cruzi intracellular amastigotes; assay: Screening against intracellular amastigotes in Vero cells (Giemsa counting); format: cell-based; settings: for IC50: Trypanosoma cruzi, Table 1, intracellular amastigotes in Vero cells, 72 h, read-out: Activity IC50 Amast.; for Selectivity Index Amast.: IC50 Vero cells/IC50 amastigotes
Description: (§1) Trypanocidal activity against amastigotes was determined according to the literature reported previously. […]. […] Each compound concentration was tested in triplicate in four separate determinations.

[2] = test system: Trypanosoma cruzi bloodstream trypomastigotes (BTs); assay: Screening against bloodstream trypomastigotes (resazurin); format: cell-based; settings: for IC50: Trypanosoma cruzi, Table 1, bloodstream trypomastigotes, 24 h treatment + 4 h resazurin, read-out: Activity IC50 Trypomast.; for Selectivity Index Trypomast.: IC50 Vero cells/IC50 trypomastigotes
Description: 2 × 10^6 Bloodstream trypomastigotes (BTs), obtained by cardiac puncture from infected BALB/c mice as previously described, were treated by adding the tested compounds at a concentration range from 50 to 0.1 µM in 96-well microplates (200 µL·well^−1) at 37 °C. After 24 h of treatment, resazurin sodium salt (Sigma-Aldrich) was added to be incubated for further 4 h. Finally, trypanocidal activity was determined following the same procedure as described to assess the trypanocidal activity in the epimastigotes. Each compound concentration was tested in triplicate in three independent experiments.

Trypanosoma cruzi [3] = assay: Parasitemia monitoring in infected BALB/c mice, acute Chagas disease; format: in vivo; settings: oral 20 mg/kg per day for 5 days from 9th dpi, versus untreated
Description: (§2) Infection was carried out by intraperitoneal inoculation of 5 × 10^5 BTs of T. cruzi per mouse in 0.2 mL PBS [56]. The mice were treated by oral route (~200 µL) once daily for 5 consecutive days. The treatment for mice treated in the acute and chronic phases began when the infection was confirmed (9th day post-infection (dpi)) and was established that the animals had entered the chronic phase (100th dpi), respectively.
(§3) The mice were divided into six groups (n = 3 per group): 0, negative control group (uninfected and untreated mice); I, positive control group (infected and untreated mice); II, BZN group (mice infected and treated with BZN); III, 8 group (mice infected and treated with 8); IV, 10 group (mice infected and treated with 10); V, 15 group (mice infected and treated with 15). The tested compounds and BZN were prepared at 2 mg·mL^−1 in an aqueous suspension vehicle containing 5% (v/v) DMSO and 0.5% (w/v) hydroxypropyl methylcellulose, as previously reported. Therefore, doses of 20 mg·kg^−1 per day were administered for 5 consecutive days, and vehicle only was administered in the negative and positive control groups.
(§4) All in vivo assays for the evaluation of compounds in the acute and chronic CD (Scheme 1)—monitoring of parasitemia, immunosuppression, PCR [59, 60], ELISA [56], and clinical analysis [56]—were performed as previously described. PCR was based on the Spliced Leader (SL) intergenic region sequence of T. cruzi (for detailed description, see literature reported previously).

Trypanosoma cruzi [4] = assay: Parasitemia reactivation after immunosuppression in BALB/c mice; format: in vivo; settings: 20 mg/kg per day for 5 days; for reactivation of infection after immunosuppression: compared to untreated mice; for reactivation of infection after immunosuppression (in words): acute and chronic CD
Description: Secondly, the experimental cure was determined using a double checking widely used in in vivo trypanocidal trials. This double checking—based on immunosuppression and PCR (Figure 2B,C, respectively)—was performed to evaluate the treatment effectiveness and the disease extent in both acute and chronic CD at the end of the in vivo timeline. The mice whose parasitemia and PCR remain negative after immunosuppression are considered cured.
Immunosuppression enhances the reactivation of any residual infection, which is proportional to the parasite survival rate.
as §2, §3, §4

Trypanosoma cruzi [5] = assay: PCR of seven organs/tissues of treated BALB/c mice (Spliced Leader sequence); format: in vivo
Description: To assess the efficacy of potential candidates by confirming the absence of infection in the target locations, PCR was carried out at the end of the in vivo timeline (Figure 2C). PCR was positive in seven organs/tissues for the untreated (control) mice groups in both phases, showing the presence of the typical nested amastigotes of the chronic CD.
as §2, §3, §4
Figure 2 (A) Parasitemia profiles of each group of mice infected with Trypanosoma cruzi and treated during the acute Chagas disease over a period of 55 days: control (untreated), benznidazole (BZN), 8, 10 and 15. Treatment days are represented in grey. […]. (B) Parasitemia reactivation by fresh blood in the chronic Chagas disease after the immunosuppression cycles for each group of mice treated during the acute and chronic phases of the disease: control (untreated), benznidazole (BZN), 8, 10, and 15. […]. (C) PCR analysis of seven organs/tissues with the Trypanosoma cruzi Spliced Leader (SL) intergenic region sequence in the chronic Chagas disease for each group of mice treated during the acute and chronic phases of the disease: (a) control (untreated), (b) benznidazole, (c) 8, (d) 10, and (e) 15.

Trypanosoma cruzi [6] = assay: Anti-T. cruzi IgG (ELISA) and splenomegaly in treated BALB/c mice; format: in vivo; settings: treated BALB/c mice versus untreated; excluding IgG levels of chronic CD
Description: Otherwise, the immune status of the mice was evaluated—through the titer of total anti-T. cruzi IgG and the splenomegaly (Figure S1)—since it is a characteristic linked to the parasite load and the effectiveness ascribed to the potential candidates. […].
as §4
Figure S1. A) Anti-Trypanosoma cruzi immunoglobulin G levels, expressed in absorbance at 492 nm, at different days post-infection (dpi) for each group of mice treated during the acute and chronic phases of Chagas disease: control (untreated), benznidazole (BZN), 8, 10 and 15. Blank and uninfected mice are also […]
included. […] Values are the means of three mice ± standard deviation. (IS) immunosuppression. * Significant differences between untreated and treated mice for α =
0.05. B) Weight percentage of spleens in the chronic Chagas disease for each group of mice treated during the acute and chronic phases of the disease: control (untreated), benznidazole (BZN), 8, 10 and 15. Values are the means of three mice ± standard deviation. In brackets: reduction of splenomegaly in comparison to […]
(§5) (1 picture or pasted object on this page, not shown here)

[7] = format: in vivo; settings: BALB/c mice, 20 mg/kg per day for 5 days
Description: Finally, biochemical analyses were performed to assess the toxicity associated to the treatment of compound 8. Kidney, heart and liver biochemical markers were measured, including values from uninfected and BZN-treated mice (Table S2). […] The low toxicity allows compound 8 to be tested at higher doses, establishing an improved treatment schedule based on pharmacokinetics in order to reach a total parasite clearance.
as §4

[8] = test system: epimastigotes of Trypanosoma cruzi; assay: Flow cytometry of nucleic acid levels (acridine orange); format: cell-based; settings: IC25 concentrations, 72 h
Description: The untreated and treated epimastigotes of T. cruzi described in the NMR analysis were collected by centrifugation, washed three times in PBS and stained with […] rhodamine 123 (Rho) (Sigma-Aldrich) or acridine orange (AO) (Sigma-Aldrich) dyes in 0.5 mL PBS for 20 min at 28 °C [63]. Control epimastigotes with a fully depolarized mitochondrion were obtained by incubation for 40 min with 10 mM KCN prior to Rho loading. Non-stained parasites were also included. After elapsed time, epimastigotes were immediately processed and analyzed by flow cytometry as previously reported.
Figure S2. Nucleic acids levels of Trypanosoma cruzi exposed to benznidazole (BZN) and compounds at […]
Inhibition, in percentage, in the nucleic acids levels with respect to untntreated parasites. Values constitute means of three separate determinations ± standard deviation. Significant differences between untreated and treated parasites for α = 0.05.
as §5

[9] = test system: epimastigotes of T. cruzi Arequipa strain; assay: Screening against extracellular epimastigotes (resazurin); format: cell-based, Trypanosoma cruzi; settings: for Selectivity Index Epimast.: IC50 Vero cells/IC50 epimastigotes; for IC50: Trypanosoma cruzi
Description: Trypanocidal activity against epimastigotes of T. cruzi Arequipa strain (MHOM/Pe/2011/Arequipa, discrete typing unit V) was tested as previously described. In short, 5 × 10^5 epimastigotes·mL^−1 were treated by adding the tested compounds at a concentration range from 100 to 0.2 µM in 96-well microplates (200 µL·well^−1) for 48 h. Subsequently, resazurin sodium salt (Sigma-Aldrich) was added to be incubated for further 24 h. Finally, the absorbance was measured, and the trypanocidal activity was expressed as the IC50 (inhibitory concentration 50) using GraphPad Prism 6 software. Each compound concentration was tested in triplicate in three independent experiments.

[10] = test system: Trypanosoma cruzi amastigotes in Vero cells; assay: Infection rate and amastigotes per Vero cell over 10 days; format: cell-based; settings: IC25 concentrations, measured at 2 days intervals for 10 days
Description: Before going ahead on in vivo trials, the in vitro infection rate and the average number of amastigotes per Vero cell were also measured at 2 days intervals for 10 days after treating the infected cultures with BZN and potential candidates (8, 10, and 15) (Figure 1) at ICH25 concentrations resulting from amastigotes screening. […]. Fast-acting drugs are urgently needed, and this feature is an additional advantage since they can eliminate the parasite in a few doses.
as §1
Figure 1 (A) Percentage of infected Vero cells and (B) number of amastigotes of Trypanosoma cruzi per Vero cell exposed to benznidazole (BZN), 8, 10 and 15. Values constitute means of three separate determinations ± standard deviation. * Significant differences between untreated and treated parasites for α = 0.05. dpi, days post-infection.

[11] = test system: epimastigotes of T. cruzi Arequipa; assay: 1H NMR analysis of excreted metabolites; format: cell-based, Trypanosoma cruzi; settings: IC25 concentrations, 72 h
Description: 5 × 10^5 epimastigotes·mL^−1 of T. cruzi Arequipa were treated by adding the tested compounds at IC25 concentrations in 25 cm^2 cell culture flasks at 28 °C for 72 h. Untreated controls were also included. Cultures were then centrifuged and filtered, and the metabolites of the supernatants were analyzed using a ^1H NMR spectrometer (VARIAN DIRECT DRIVE 500 MHz […]) with AutoX probe, D2O as solvent and 2,2-dimethyl-2-silapentane-5-sulphonate as the reference signal. Chemical shifts were expressed in parts per million (ppm), and analyses were conducted as previously reported.

Trypanosoma cruzi Fe-SOD = assay: SOD enzymatic inhibition, Fe-SOD; format: biochemical
Description: (§6) Excreted Fe-SOD protein—obtained and quantified as previously described [64]—and commercial Cu/Zn-SOD from human erythrocytes (Sigma-Aldrich) were exposed to the tested compounds at a concentration range from 100 to 0.1 µM to determine in vitro activities using the method previously described.

[12] = biological target: T1, human erythrocytes CuZn-SOD (Homo sapiens, UniProt P00441); assay: SOD enzymatic inhibition, CuZn-SOD; format: biochemical; settings: 100 to 0.1 µM, read-out: CuZn-SOD IC50 (in brackets)
T1 construct: commercial Cu/Zn-SOD from human erythrocytes (Sigma-Aldrich); purchased Sigma-Aldrich; host or cells: human erythrocytes
T1 sequence (P00441 whole entry): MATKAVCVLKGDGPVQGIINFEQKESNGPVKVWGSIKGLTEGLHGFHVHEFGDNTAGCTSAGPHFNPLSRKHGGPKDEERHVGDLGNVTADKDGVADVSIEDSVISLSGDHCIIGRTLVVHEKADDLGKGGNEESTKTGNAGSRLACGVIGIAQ
Description: as §6

[13] = Table 1, T. cruzi epimastigotes, 48 h treatment + 24 h resazurin, read-out: Activity IC50 Epimast.
[14] = Table S1, cultured epimastigote form of T. cruzi, read-out: Activity IC50

SMILES	IC50 [1] [µM]	IC50 [2] [µM]	parasitemia levels (counting BTs) during the acute CD (Trypanosoma cruzi [3])	total anti-T. cruzi IgG levels and splenomegaly (Trypanosoma cruzi [6])	Selectivity Index Epimast. [9]	IC50 [9, 13] [µM]	IC50 [9, 14] [µM]	CC50 (Mammalian Vero cells) [µM]	Selectivity Index Amast. [1]	Selectivity Index Trypomast. [2]	infection rate and average number of amastigotes per Vero cell [10]	reactivation of infection after immunosuppression (in words) (Trypanosoma cruzi [4])	IC50 [12] [µM]	also measured
O=C(Cn1ccnc1[N+](=O)[O-])NCc1ccccc1 [BZN, benznidazole, reference compound]	8.3 ± 0.7	12.4 ± 1.1	remarkable parasitemia reduction	significant reduction	–	–	–	–	–	–	–	–	–	IC50 (Mammalian Vero cells): 80.4 ± 7.1 µM; reactivation of infection after immunosuppression (Trypanosoma cruzi [4]; mice treated in acute CD): 81%; reactivation of infection after immunosuppression (Trypanosoma cruzi [4]; mice treated in chronic CD): 68%; negative PCR (parasite-free locations) (Trypanosoma cruzi [5]; mice treated in acute CD): 2/7; negative PCR (parasite-free locations) (Trypanosoma cruzi [5]; mice treated in chronic CD): 3/7; kidney, heart and liver biochemical markers [7]: disturbed 2 days after treatment; reduction in nucleic acid levels with respect to untreated parasites [8]: 22.4%
CSc1ccc(C[Se][Se]Cc2ccc(SC)cc2)cc1 [compound 10]	1.2 ± 0.2	1.7 ± 0.3	slight activity	Slight or non-significant reductions	75	1.8 ± 0.2	≤ 10	135 ± 6.3	112	79	decrease in both infection rate and number of amastigotes per cell in a time-dependent manner	light activity	> 100	variation of excreted metabolites versus untreated parasites [11]: < 10%; Fe-SOD inhibition (Trypanosoma cruzi Fe-SOD; at 100 µM): 100%
N#C[Se]Cc1ccccc1[N+](=O)[O-] [compound 15]	0.5	1.3 ± 0.3	non-significant differences	Slight or non-significant reductions	20	0.9 ± 0.1	≤ 10	17.9 ± 1	36	14	decrease in both infection rate and number of amastigotes per cell in a time-dependent manner	non-significant differences	> 100	excretion of metabolites versus untreated parasites (in words) [11]: strikingly increased; SOD inhibitory activity (in words) (Trypanosoma cruzi Fe-SOD; 100 to 0.1 µM): no inhibitory activity
